The values below come from US9321804B2, “Synthesis and use of anti-tumor drug LQC-Y” (Beijing University of Chinese Medicine, priority 2011, dated 2016).

“Also recorded” adds a separate entry of the source.

Series [1] relates to Human hepatoma carcinoma cells Bel7402. Description: Proliferation of human hepatoma carcinoma cells Bel7402 by MTT. It is filed as cell-based. As to conditions: for 24 h inhibition ratio (%): Bel7402 cells. The protocol: Human hepatoma carcinoma cells Bel7402 were recovered and subcultured using a culture flask. The preparation of the experiment was started when the cell growth entered into the exponential growth phase. The cells were then digested using pancreatic enzyme which had been filtrated at an increased pressure to prepare the cell suspension. After that the suspension was dyed for 3 min with 0.4% trypan blue. Then a blood cell counting plate was used to count the living cells which were not dyed and the dead cells which were dyed to blue. The number of the living cells identified by trypan blue was more than 98%.
Three kinds of cells which were in the exponential growth phase were inoculated at the density of 1×10^4/ml, to a 96-well plate, 200 μl for each well. Then the plate was put in a 37° C. 5% CO2 incubation box to be cultured for 24 h. The cultivation liquid was sucked away and 200 μl LQC-Y solutions of different concentrations were added thereinto (prepared with DMEM cultivation liquid containing 4% calf serum and the final concentration of which respectively were 10 μg, 20 μg, 40 μg), 4 parallel wells for each concentration. Supernatant cultivation liquid 100 μl was sucked away carefully from each well after being cultured for 24 h and 48 h, and MTS 20 μl was added into each well and homogeneously mixed. The resultant liquid was cultured in a 37° C. 5% CO2 incubation box for a further 1 h. An enzyme-labeling quantitative instrument was used to measure the absorbance at 492 nm. The experiment was repeated for 3 times and then an inhibition ratio was calculated.
The inhibition ratio of cell proliferation (%)=[(average OD value of control group-average OD value of the administration group)/average OD value of control group]×100%

For series [2] the test system is unchanged. The series is described as above. In kind it is cell-based. The settings on record: 40 μg/ml.
The test system of series [3] is small vessel growth of CAM model. Kind of series: Effect of LQC-Y on tumor angiogenesis using CAM method (small vessel count). It is filed as in vivo, chicken. The settings on record: compared with the blank group. The procedure:
Aseptic gelatin sponge, which was made into a wafer having a diameter of 5 mm by a hole-puncher in advance, was used as sample carrier. The prepared derivatives of bromotetramethylpyrazine series were added thereinto in an aseptic environment and different dosage groups were set according to the difference of the molecular weight of each medicine, including 10 μg/chicken embryo, 20 μg/chicken embryo and 40 μg/chicken embryo. The 0.9% physiological saline was used in a blank group. The samples were air-dried in an aseptic environment.
A hatching egg after disinfection was put into a 37° C. incubation box with air sac upward until the seventh day of incubation. The egg embryo was disinfected using alcohol at a super clean bench, and then a small hole was drilled at the top of the egg embryo using a dental drill, and the nearby egg shell and shell membrane were removed carefully to form a opening with the size of about 1.2 cm×1.2 cm. […]
After the incubation, the transparent tape blocking the chicken embryo air sac was softly removed with a nipper. […] The effect of the compounds on angiogenesis was evaluated by the count analytic method using the numbers of great vessels, medium vessels and small vessels arranged radially around the carrier. […]

Series [4] concerns S180 sarcoma of mice. Description: Tumor inhibiting effect of LQC-Y2 in tumor bearing S180 mice. The settings on record: for Tumor inhibiting ratio (%) / Tumor weight: S180 Balb/C mice, 15 days. The protocol: The S180 mice that had been inoculated for 7 days were killed by breaking the neck thereof and ascites was taken from the mice respectively in an aseptic environment and the ascites was washed using RPMI1640 culture medium for 2 times and then made into a […] /ml cell suspension using aseptic physiological saline. Then the obtained S180 cell suspension was inoculated hypodermically at the right axillary of mice, 0.1 ml for each mouse and 50 mice total, to establish the solid tumor model.
60 mice were divided into 2 categories, including 6 groups, according to the random number table method, i.e. normal control group of the first category, and S180 solid tumor groups of the second category which included positive (cyclophosphamide) control group, negative control group, small dosage group, middle dosage group and large dosage group, 10 mice for each group. The experiment was repeated for 3 times.
LQC-Y2 was made into an emulsion using corn oil. The dosage of the small dosage group was 75 mg/Kg, the dosage of the middle dosage group was 150 mg/Kg, and the dosage of the large dosage group was 300 mg/kg. Equal volume of corn oil was injected into the mice of the negative control group, cyclophosphamide injection 0.02 g/(Kg.d) was injected into the mice of the positive control group. These medicines were administrated 0.1 ml per mouse by intraperitoneal injection every the other day continuously for 15 days. During this period, the common behavior, hair and excrement and so on were observed daily. The mice that had been inoculated with S180 by hypodermic inoculation were killed by breaking the necks thereof after 24 h after the last administration and the tumor, liver and spleen were then taken.
The weight of the solid tumor group mice were measured after all the administration was over and then the mice were killed. The spleens and the livers thereof were weighed by an electronic balance. The spleen index was calculated as the spleen weight of a mouse (mg)/the body weight of a mouse(g) and the liver index was calculated as the liver weight of a mouse[…]/the body weight of a mouse(g).
The solid tumor negative control group mice were weighed on the next day after the administration was finished (the eyeballs of the mice were removed to bleed and the serum was collected for subsequent experimental use). Then the mice were killed by breaking the neck thereof. The tumor tissues were taken out and weighed by an electronic balance to calculate the tumor-inhibiting ratio.
All the data were statistically analyzed using SPSS11.0 software pack. The comparison of the enumeration data was carried out with X^2 test. P<0.05 had statistical significance.

Where [5] appears, read: large dosage 300 mg/kg i.p. every other day.
Where [6] appears, read: middle dosage 150 mg/Kg i.p. every other day.
The mark [7] stands for this setting: small dosage 75 mg/Kg i.p. every other day.

With `Cc1nc(C)c(COC(=O)CCC(C)C2CCC3C4CCC5CC(O)CCC5(C)C4CC(O)C23C)nc1C` (stereo not shown) [LQC-Y2, (3,5,6-trimethyl pyrazine-2-yl)methyl-4-(3,12-dihydroxy-10,13-dimethylhexadecahydro-1H-cyclopenta[a]phenanthren-17-yl)pentanoate], the “24 h inhibition ratio (%)” value is 20.09% in series [1] (10 μg/ml), 61.2% in series [1] (20 μg/ml) and 66.98% in series [2]. The “inhibiting effect on the proliferation of Bel7402 cells” value in series [1] (cultured in vitro, 10-40 μg/ml) is “evident inhibiting effect”. Also, the “vessel growth inhibiting effect” value in series [3] was “significant inhibiting effect; also recorded: magnificent inhibiting effect”. Besides, the “effect on the growth of the sarcoma of S180 mice” value in series [4] (75-300 mg/kg i.p.) is “Some Effect on Inhibiting the Growth; also recorded: inhibit the growth of S180 tumor effectively”. Besides, the “Tumor inhibiting ratio (%)” value in series [4] (setting [5]) is given as 29.15%; in series [4] (setting [6]), 35.88%; in series [4] (setting [7]), 6.87%. Moreover, the “Tumor weight” value worked out at 0.92 ± 0.49 g in series [4] (setting [5]), 0.84 ± 0.53 g in series [4] (setting [6]) and 1.22 ± 0.62 g in series [4] (setting [7]). In addition, the “effect on the growth of the S180 sarcoma mice's weight” value in series [4] (mouse, in vivo) is given as “no effect”.
